Like-named read-outs stand apart in the source and are kept apart here.
What was measured:
KKAy mice = assay: Blood glucose and blood lipid (triglyceride) lowering action in mice; type: in vivo; details: Mus musculus, 4TO7, po, 4 to 7 days; for response vs control in vivo at 0.01 %: 0.01% in powder diet; for response vs control in vivo at 0.03 %: 0.03% in powder diet
From the text: The test compound was mixed with a powder diet (CE-2, CLEA JAPAN, INC.) at a proportion of 0.01% (0.03% for the compounds of Examples 1, 2, 12, 81, 94, 96, 129 and 143, and 0.005% for the compounds of Examples 28, 30 and 37) and freely given to KKAy mice (9 to 14-week-old, 5 mice per group) which are obesity non-insulin-dependent diabetes (type-2 diabetes) models, for 4 to 7 days. During this period, water was freely given. The blood was drawn from the orbital venous plexus. Glucose and triglyceride in the plasma separated from the blood were quantitated using L Type Wako Glu2 (Wako Pure Chemical Industries, Ltd.) and L Type Wako TG·H (Wako Pure Chemical Industries, Ltd.), respectively, according to an enzyme method.

PPARγ-RXRα heterodimer = molecular target: T1, PPARγ-RXRα heterodimer (Homo sapiens, UniProt P37231); assay: PPARγ-RXRα heterodimer ligand activity (luciferase reporter, PPARγ:RXRα:4ERPP/CHO-K1 cells); type: cell-based; details: concentration showing 50% of the maximum luciferase induction rate; CHO-K1 reporter cells, one day incubation
T1 construct: expressed in transfected cells; host or cells: CHO-K1 (PPARγ:RXRα:4ERPP/CHO-K1)
T1 sequence (P37231 1-477 isoform P37231-2): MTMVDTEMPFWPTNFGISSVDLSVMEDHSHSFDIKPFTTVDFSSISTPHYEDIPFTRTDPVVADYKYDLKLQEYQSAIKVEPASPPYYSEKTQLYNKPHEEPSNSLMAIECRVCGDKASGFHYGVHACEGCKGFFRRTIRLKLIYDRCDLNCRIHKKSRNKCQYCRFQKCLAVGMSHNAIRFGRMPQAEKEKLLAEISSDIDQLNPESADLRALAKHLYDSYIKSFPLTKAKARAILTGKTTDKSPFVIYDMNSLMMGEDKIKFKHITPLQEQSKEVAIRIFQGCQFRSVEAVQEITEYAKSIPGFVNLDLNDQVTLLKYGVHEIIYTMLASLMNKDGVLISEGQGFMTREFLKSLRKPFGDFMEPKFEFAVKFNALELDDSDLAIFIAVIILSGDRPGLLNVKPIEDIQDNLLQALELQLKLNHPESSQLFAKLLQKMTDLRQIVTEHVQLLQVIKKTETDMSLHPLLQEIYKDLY
T1 sequence (P19793 1-462 partner): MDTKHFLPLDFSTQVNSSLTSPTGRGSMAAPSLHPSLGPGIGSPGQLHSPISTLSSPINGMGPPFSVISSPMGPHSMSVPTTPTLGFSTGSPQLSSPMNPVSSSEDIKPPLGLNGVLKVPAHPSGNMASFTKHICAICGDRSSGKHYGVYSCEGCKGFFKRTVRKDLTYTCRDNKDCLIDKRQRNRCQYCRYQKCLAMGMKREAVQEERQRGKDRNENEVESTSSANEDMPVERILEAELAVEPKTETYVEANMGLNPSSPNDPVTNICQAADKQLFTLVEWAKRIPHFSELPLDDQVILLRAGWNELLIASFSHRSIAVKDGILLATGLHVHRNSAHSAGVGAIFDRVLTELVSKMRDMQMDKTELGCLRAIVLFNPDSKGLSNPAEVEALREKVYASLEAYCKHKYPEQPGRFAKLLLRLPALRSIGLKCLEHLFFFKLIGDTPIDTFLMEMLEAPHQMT
Procedure: The PPARγ:RXRα:4ERPP/CHO-K1 cells described in WO03/099793 were cultured in a Ham F12 medium [manufactured by Life Technologies, Inc., US] containing 10% calf fetal serum [manufactured by Life Technologies, Inc., US], sown in a 96-well white plate (manufactured by Corning Coster Corporation, US] at 1×10^4 cells/well, and incubated overnight in a carbon dioxide gas incubator at 37° C.
Then, the medium was removed from the 96 well white plate, 45 μl of Ham F12-medium containing 0.1% fatty acid-free bovine serum albumin (BSA) and a test compound (5 μl) were added, and the cells were incubated for one day in a carbon dioxide gas incubator at 37° C. The medium was removed, 20 μl of PicaGene 7.5 (manufactured by Wako Pure Chemical Industries, Ltd.) 2-fold diluted with HBSS (HANKS' BALANCED SALT SOLUTION) [manufactured by BIO WHITTAKER, US] was added. After stirring, the luciferase activity was determined using the 1420 ARVO Multilabel Counter [manufactured by PerkinElmer, US].
The induction rate was calculated from the luciferase activity of each test compound based on the luciferase activity of the test compound non-administration group as 1. The test compound concentration and the induction rate were analyzed by PRISM [manufactured by GraphPad Software, Inc., US] to calculate EC50 value (compound concentration showing 50% of the maximum value of induction rate) of the test compound.

[1] = plasma glucose relative to non-administration group = 100%, read-out: hypoglycemic action (%)
[2] = plasma triglyceride relative to non-administration group = 100%, read-out: hypolipidemic action (%)

With `CC(C)CCS(=O)(=O)NC(=O)/C=C/c1cc(OCC2CC2)nn1Cc1ccc(C(F)(F)F)cc1Cl` [Example 26, (2E)-3-[1-[2-chloro-4-(trifluoromethyl)benzyl]-3-(cyclopropylmethoxy)-1H-pyrazol-5-yl]-N-[(3-methylbutyl)sulfonyl]acrylamide] the melting point was 155.5 to 157.5 °C, the response vs control in vivo at 0.01 % (KKAy mice; [1]) was 50% and the response vs control in vivo at 0.01 % (KKAy mice; [2]) was 62%. For the same compound, the EC50 (PPARγ-RXRα heterodimer) was 4.6 nM.

`CCCCCS(=O)(=O)NC(=O)CCc1cc(OCCCC)nn1Cc1ccc(Cl)cc1Cl` [Example 97, 3-[3-butoxy-1-(2,4-dichlorobenzyl)-1H-pyrazol-5-yl]-N-(pentylsulfonyl)propanamide] showed a melting point of 104 to 105 °C, a response vs control in vivo at 0.01 % (KKAy mice; [1]) of 58% and a response vs control in vivo at 0.01 % (KKAy mice; [2]) of 64%. The EC50 (PPARγ-RXRα heterodimer) was 7.5 nM.

Compound `CCCCOC(=O)NS(=O)(=O)CCc1cc(OCCCC)nn1Cc1ccc(Cl)cc1Cl` [Example 129, butyl ({2-[3-butoxy-1-(2,4-dichlorobenzyl)-1H-pyrazol-5-yl]ethyl}sulfonyl)carbamate] has a melting point of 108 to 111 °C, a response vs control in vivo at 0.03 % (KKAy mice; [1]) of 45% and a response vs control in vivo at 0.03 % (KKAy mice; [2]) of 76%. It also gave an EC50 (PPARγ-RXRα heterodimer) of 10 nM.

For `CCCCCS(=O)(=O)NC(=O)/C=C/c1cc(OCC2CC2)nn1Cc1ccc(C(F)(F)F)cc1Cl` [Example 151, (2E)-3-[1-[2-chloro-4-(trifluoromethyl)benzyl]-3-(cyclopropylmethoxy)-1H-pyrazol-5-yl]-N-(pentylsulfonyl)acrylamide], the melting point was 148 to 151 °C, the response vs control in vivo at 0.01 % (KKAy mice; [1]) was 59% and the response vs control in vivo at 0.01 % (KKAy mice; [2]) was 73%. It also gave an EC50 (PPARγ-RXRα heterodimer) of 7.2 nM.

Compound `CCCCCS(=O)(=O)NC(=O)/C(=C/c1ccc(OCCOC)cc1Oc1ncc(C(F)(F)F)cc1Cl)CC` [Example 183, (2E)-2-[2-{[3-chloro-5-(trifluoromethyl)pyridin-2-yl]oxy}-4-(2-methoxyethoxy)benzylidene]-N-(pentylsulfonyl)butanamide] has a melting point of 104.5 to 105.6 °C, a response vs control in vivo at 0.01 % (KKAy mice; [1]) of 48% and a response vs control in vivo at 0.01 % (KKAy mice; [2]) of 44%. It also gave an EC50 (PPARγ-RXRα heterodimer) of 3.8 nM.

`CCCCCS(=O)(=O)NC(=O)/C=C/c1ccc(OCCC2OCCO2)cc1Oc1ncc(C(F)(F)F)cc1Cl` [Example 196, (2E)-3-[2-{[3-chloro-5-(trifluoromethyl)pyridin-2-yl]oxy}-4-[2-(1,3-dioxolan-2-yl)ethoxy]phenyl)-N-(pentylsulfonyl)acrylamide] showed a melting point of 116 to 118 °C, a response vs control in vivo at 0.01 % (KKAy mice; [1]) of 54% and a response vs control in vivo at 0.01 % (KKAy mice; [2]) of 79%. For the same compound, the EC50 (PPARγ-RXRα heterodimer) was 4.4 nM.

In the case of `CCCCCS(=O)(=O)NC(=O)/C=C/c1ccc(Oc2ncccn2)cc1Oc1ncc(C(F)(F)F)cc1Cl` [Example 197, (2E)-3-[2-{[3-chloro-5-(trifluoromethyl)pyridin-2-yl]oxy}-4-(pyrimidin-2-yloxy)phenyl]-N-(pentylsulfonyl)acrylamide], the melting point is reported as 80.5 to 82.5 °C, the response vs control in vivo at 0.01 % (KKAy mice; [1]) is reported as 58% and the response vs control in vivo at 0.01 % (KKAy mice; [2]) is reported as 87%. The EC50 (PPARγ-RXRα heterodimer) was 28 nM.

For `CCCCCS(=O)(=O)NC(=O)C(Cc1ccc(OCCOC)cc1Oc1ncc(C(F)(F)F)cc1Cl)OC` (stereo not shown) [Example 210, 3-[2-{[3-chloro-5-(trifluoromethyl)pyridin-2-yl]oxy}-4-(2-methoxyethoxy)phenyl]-2-methoxy-N-(pentylsulfonyl)propanamide], the response vs control in vivo at 0.01 % (KKAy mice; [1]) was 58%, the response vs control in vivo at 0.01 % (KKAy mice; [2]) was 69% and the EC50 (PPARγ-RXRα heterodimer) was 6.7 nM.

`CCCCCS(=O)(=O)NC(=O)/C(C)=C/c1ccc(OCCOC)cc1Oc1ncc(C(F)(F)F)cc1Cl` [Example 211, (2E)-3-[2-{[3-chloro-5-(trifluoromethyl)pyridin-2-yl]oxy}-4-(2-methoxyethoxy)phenyl]-2-methyl-N-(pentylsulfonyl)acrylamide] showed a response vs control in vivo at 0.01 % (KKAy mice; [1]) of 49%, a response vs control in vivo at 0.01 % (KKAy mice; [2]) of 46% and an EC50 (PPARγ-RXRα heterodimer) of 5.2 nM.

`CCCCCNS(=O)(=O)NC(=O)CCc1ccc(OCCOC)cc1Oc1ncc(C(F)(F)F)cc1Cl` [Example 214, 3-[2-{[3-chloro-5-(trifluoromethyl)pyridin-2-yl]oxy}-4-(2-methoxyethoxy)phenyl]-N-[(pentylamino)sulfonyl]propanamide] gave a response vs control in vivo at 0.01 % (KKAy mice; [1]) of 56%, a response vs control in vivo at 0.01 % (KKAy mice; [2]) of 65% and an EC50 (PPARγ-RXRα heterodimer) of 1.1 nM.

`CCCCCS(=O)(=O)NC(=O)/C=C/c1ccc(OCCO)cc1Oc1ncc(C(F)(F)F)cc1Cl` [Example 218, (2E)-3-[2-{[3-chloro-5-(trifluoromethyl)pyridin-2-yl]oxy}-4-(2-hydroxyethoxy)phenyl]-N-(pentylsulfonyl)acrylamide monohydrate] showed a response vs control in vivo at 0.01 % (KKAy mice; [1]) of 81%, a response vs control in vivo at 0.01 % (KKAy mice; [2]) of 129% and an EC50 (PPARγ-RXRα heterodimer) of 80 nM.

In the case of `CCCCCS(=O)(=O)NC(=O)/C=C/c1ccc(OCC(C)(C)O)cc1Oc1ncc(C(F)(F)F)cc1Cl` [Example 250, (2E)-3-[2-{[3-chloro-5-(trifluoromethyl)pyridin-2-yl]oxy}-4-(2-hydroxy-2-methylpropoxy)phenyl]-N-(pentylsulfonyl)acrylamide], the response vs control in vivo at 0.01 % (KKAy mice; [1]) is reported as 78%, the response vs control in vivo at 0.01 % (KKAy mice; [2]) is reported as 121% and the EC50 (PPARγ-RXRα heterodimer) is reported as 7.2 nM.

`CCCCCS(=O)(=O)NC(=O)C(C)(C)Cc1ccc(OCCOC)cc1Oc1ncc(C(F)(F)F)cc1Cl` [Example 252, 3-[2-{[3-chloro-5-(trifluoromethyl)pyridin-2-yl]oxy}-4-(2-methoxyethoxy)phenyl]-2,2-dimethyl-N-(pentylsulfonyl)propanamide] gave a response vs control in vivo at 0.01 % (KKAy mice; [1]) of 46%, a response vs control in vivo at 0.01 % (KKAy mice; [2]) of 20% and an EC50 (PPARγ-RXRα heterodimer) of 3.1 nM.

Compound `CCCCCS(=O)(=O)NC(=O)/C=C/c1ccc(OCCOC2CC2)cc1Oc1ncc(C(F)(F)F)cc1Cl` [Example 424, (2E)-3-{2-{[3-chloro-5-(trifluoromethyl)pyridin-2-yl]oxy}-4-[2-(cyclopropyloxy)ethoxy]phenyl}-N-(pentylsulfonyl)acrylamide] has a response vs control in vivo at 0.01 % (KKAy mice; [1]) of 70%, a response vs control in vivo at 0.01 % (KKAy mice; [2]) of 18% and an EC50 (PPARγ-RXRα heterodimer) of 6.2 nM.

With `CC(C)OCCNS(=O)(=O)NC(=O)OCCCc1ccc(OCCO)cc1Oc1ncc(C(F)(F)F)cc1Cl` [Example 439, 3-[2-{[3-chloro-5-(trifluoromethyl)pyridin-2-yl]oxy}-4-(2-hydroxyethoxy)phenyl]propyl {[(2-isopropoxyethyl)amino]sulfonyl}carbamate] the response vs control in vivo at 0.01 % (KKAy mice; [1]) was 49%, the response vs control in vivo at 0.01 % (KKAy mice; [2]) was 34% and the EC50 (PPARγ-RXRα heterodimer) was 1.8 nM.

Compound `CC(C)Oc1ccc(CCCOC(=O)NS(=O)(=O)NCCc2ccccn2)c(Oc2ncc(C(F)(F)F)cc2Cl)c1` [Example 444, 3-(2-{[3-chloro-5-(trifluoromethyl)pyridin-2-yl]oxy}-47 isopropoxyphenyl)propyl {[(2-pyridin-2-ylethyl)amino]sulfonyl}carbamate] has a response vs control in vivo at 0.01 % (KKAy mice; [1]) of 55%, a response vs control in vivo at 0.01 % (KKAy mice; [2]) of 52% and an EC50 (PPARγ-RXRα heterodimer) of 3.4 nM.

From patent US20100041892A1, “Therapeutic agent for diabetes” (priority 2005, published 2010)
